Assay results from patent US9795134B2, “Growth enhancement of plant” (RHODIA OPERATIONS, priority 2012, dated 2017).

Test system: Wheat seeds
Assay: Germination test on wheat seeds with pesticide (tebuconazol) treatment
Assay type: in vivo
Conditions: Guar 1/seed 0.2%, tebuconazol/seed 0.1%, 25 ml water each 2 days, 25° C.
Description: Germination rate means the number of plant emerging out of soil in comparison with the number of all introduced in the soil. Height is the medium height of all plants in a set. Spraying an aqueous solution comprising 0.4 wt % of Guar 1 and […] additives on the surface of Wheat seeds, to obtain a weight ratio Guar 1/seed of 0.2% and tebuconazol/seed of 0.1%. 900 g of soil in each pot are used; this soil coming from […] province and belongs to […] soil. The germination test is carried out under watering conditions of 25 ml water each 2 days, with a temperature is 25° C.

CC(C)(C)C(O)(CCc1ccc(Cl)cc1)Cn1cncn1 (centres unmarked) [tebucanozol, tebuconazol]
Germination rate (36 days): 47% | Height (36 days): 4.6 cm
